Test results as given in patent US8076116B2, “Nucleic acids encoding class II human histone deacetylases, and uses related thereto” (priority 2000, dated 2011).

How the values were obtained:
HDAC4 [1] = type: cell-based, human; conditions: TAg Jurkat cells treated 1.5 hours; for HDAC activity of the purified HDAC4 complex: immunoprecipitate
Description: (§1) In addition, an increase in the overall HDAC activity of the purified complex was observed (FIG. 9A).
HDAC4 (SEQ ID NO:2) also contains a nuclear localization sequence (Hicks and Raikhel, 1995). In order to determine if the interaction with 14-3-3 blocks binding of the importin heterodimer, recombinant FLAG-tagged HDAC4 (SEQ ID NO:2) was immunoprecipitated from untreated, staurosporine-, and calyculin A-treated TAg-Jurkat cells and analyzed for binding to importin □ by Western blotting.
(§2) Cells were harvested 48 hours post-transfection. When required, cells were treated with 200 µM staurosporin (Calbiochem) or 20 nM calyculin A (Calbiochem) for 1.5 hours prior to harvesting.

HDAC5 [2] = type: cell-based, human; conditions: TAg Jurkat cells treated 1.5 hours; for HDAC5 association with HDAC3 / binding of HDAC5 to either 14-3-3 isoform: Western blot; for HDAC activity of the purified HDAC5 complex: immunoprecipitate
Experimental: as §1, §2

HDAC1 = target: T1, HDAC1 (Homo sapiens, UniProt Q13547); experiment: in vitro HDAC assay, release of 3H-acetate from labeled histones by immunoprecipitated FLAG-tagged HDAC1; type: biochemical; conditions: 300 nM TSA, 10 minutes prior to addition of labeled histones
T1 construct: made in house; host or cells: Sf9 insect cells (baculovirus, pVL1392)
T1 sequence (Q13547 whole entry): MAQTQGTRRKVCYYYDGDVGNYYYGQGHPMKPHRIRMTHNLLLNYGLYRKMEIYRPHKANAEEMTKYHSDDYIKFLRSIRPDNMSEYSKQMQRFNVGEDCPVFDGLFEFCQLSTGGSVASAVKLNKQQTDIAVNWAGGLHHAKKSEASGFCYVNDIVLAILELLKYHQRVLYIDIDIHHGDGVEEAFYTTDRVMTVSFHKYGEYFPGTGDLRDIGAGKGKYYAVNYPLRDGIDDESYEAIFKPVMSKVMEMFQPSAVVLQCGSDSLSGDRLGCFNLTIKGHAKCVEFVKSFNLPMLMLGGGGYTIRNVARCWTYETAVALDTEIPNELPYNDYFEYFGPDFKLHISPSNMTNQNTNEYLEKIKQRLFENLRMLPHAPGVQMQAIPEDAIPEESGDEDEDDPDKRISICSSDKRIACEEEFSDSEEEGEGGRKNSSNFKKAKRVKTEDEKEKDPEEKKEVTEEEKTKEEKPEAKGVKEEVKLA
Experimental: (§3) C. In Vitro Histone Deacetylase Activity of Class II HDACs.
(§4) FLAG-tagged HDAC1 and HDAC6 were expressed in TAg Jurkat cells and purified by immunoprecipitation using the anti-FLAG antibody. […] The proteins were used in in vitro HDAC assays with the compounds identified in the screen, using concentration of approximately 50 μM.
(§5) E. Histone isolation and substrate specificity determination. […] F. HDAC6 Mutagenesis. […] G. Cell culture and transfections. […] Cells were harvested 48 hours post-transfection. H. DNA Constructs

HDAC5 [3] = target: HDAC5 (Homo sapiens, UniProt Q9UQL6); conditions: 300 nM TSA, 10 minutes prior to addition of labeled histones
HDAC5 (Homo sapiens, UniProt Q9UQL6), sequence (Q9UQL6 whole entry D593E): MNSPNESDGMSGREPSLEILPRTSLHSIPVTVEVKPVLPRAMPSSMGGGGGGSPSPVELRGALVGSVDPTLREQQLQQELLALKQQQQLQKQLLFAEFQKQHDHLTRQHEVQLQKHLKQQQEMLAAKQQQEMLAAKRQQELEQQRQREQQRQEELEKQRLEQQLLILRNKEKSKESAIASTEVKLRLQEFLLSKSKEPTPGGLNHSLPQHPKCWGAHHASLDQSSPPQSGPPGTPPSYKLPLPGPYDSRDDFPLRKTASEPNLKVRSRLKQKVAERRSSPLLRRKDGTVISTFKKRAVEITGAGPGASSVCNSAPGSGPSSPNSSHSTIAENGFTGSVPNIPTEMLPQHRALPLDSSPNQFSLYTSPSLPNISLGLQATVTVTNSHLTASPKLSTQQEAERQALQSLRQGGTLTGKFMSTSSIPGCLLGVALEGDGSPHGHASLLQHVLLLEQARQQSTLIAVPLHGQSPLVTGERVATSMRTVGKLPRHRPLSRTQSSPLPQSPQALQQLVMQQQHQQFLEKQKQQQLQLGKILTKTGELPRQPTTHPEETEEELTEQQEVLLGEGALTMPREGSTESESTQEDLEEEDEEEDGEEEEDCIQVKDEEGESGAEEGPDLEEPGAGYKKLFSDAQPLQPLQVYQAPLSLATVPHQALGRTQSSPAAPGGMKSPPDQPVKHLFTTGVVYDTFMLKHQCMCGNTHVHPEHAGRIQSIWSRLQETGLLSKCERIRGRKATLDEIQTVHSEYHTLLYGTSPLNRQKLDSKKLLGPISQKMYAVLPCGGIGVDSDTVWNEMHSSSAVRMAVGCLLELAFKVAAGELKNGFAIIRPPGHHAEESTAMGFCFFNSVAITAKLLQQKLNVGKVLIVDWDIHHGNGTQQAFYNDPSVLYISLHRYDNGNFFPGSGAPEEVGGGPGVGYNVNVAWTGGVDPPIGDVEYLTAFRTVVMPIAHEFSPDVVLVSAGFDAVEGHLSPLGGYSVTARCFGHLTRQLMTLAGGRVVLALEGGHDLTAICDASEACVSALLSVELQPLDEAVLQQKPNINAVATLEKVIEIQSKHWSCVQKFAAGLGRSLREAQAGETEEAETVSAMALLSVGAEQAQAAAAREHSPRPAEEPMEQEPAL
Description: (§6) The NCBI database was screened with the yeast Hda1p amino acid sequence to identify human homologs. The complete ORFs of HDAC 4 (SEQ ID NO:2), 5 (SEQ ID NO:4), and 6 (SEQ ID NO:6) were constructed as described in Methods. […] The two catalytic regions in HDAC6 (SEQ ID NO:6) are highly homologous to each other (47% identity, 64% similarity) and therefore the protein may have arisen evolutionarily from an in frame gene duplication event. […] C. In Vitro Histone Deacetylase Activity of Class II HDACs.

HDAC4 [4] = target: HDAC4 (Homo sapiens, UniProt P56524); conditions: 300 nM TSA, 10 minutes prior to addition of labeled histones
HDAC4 (Homo sapiens, UniProt P56524), sequence (P56524 whole entry A373T): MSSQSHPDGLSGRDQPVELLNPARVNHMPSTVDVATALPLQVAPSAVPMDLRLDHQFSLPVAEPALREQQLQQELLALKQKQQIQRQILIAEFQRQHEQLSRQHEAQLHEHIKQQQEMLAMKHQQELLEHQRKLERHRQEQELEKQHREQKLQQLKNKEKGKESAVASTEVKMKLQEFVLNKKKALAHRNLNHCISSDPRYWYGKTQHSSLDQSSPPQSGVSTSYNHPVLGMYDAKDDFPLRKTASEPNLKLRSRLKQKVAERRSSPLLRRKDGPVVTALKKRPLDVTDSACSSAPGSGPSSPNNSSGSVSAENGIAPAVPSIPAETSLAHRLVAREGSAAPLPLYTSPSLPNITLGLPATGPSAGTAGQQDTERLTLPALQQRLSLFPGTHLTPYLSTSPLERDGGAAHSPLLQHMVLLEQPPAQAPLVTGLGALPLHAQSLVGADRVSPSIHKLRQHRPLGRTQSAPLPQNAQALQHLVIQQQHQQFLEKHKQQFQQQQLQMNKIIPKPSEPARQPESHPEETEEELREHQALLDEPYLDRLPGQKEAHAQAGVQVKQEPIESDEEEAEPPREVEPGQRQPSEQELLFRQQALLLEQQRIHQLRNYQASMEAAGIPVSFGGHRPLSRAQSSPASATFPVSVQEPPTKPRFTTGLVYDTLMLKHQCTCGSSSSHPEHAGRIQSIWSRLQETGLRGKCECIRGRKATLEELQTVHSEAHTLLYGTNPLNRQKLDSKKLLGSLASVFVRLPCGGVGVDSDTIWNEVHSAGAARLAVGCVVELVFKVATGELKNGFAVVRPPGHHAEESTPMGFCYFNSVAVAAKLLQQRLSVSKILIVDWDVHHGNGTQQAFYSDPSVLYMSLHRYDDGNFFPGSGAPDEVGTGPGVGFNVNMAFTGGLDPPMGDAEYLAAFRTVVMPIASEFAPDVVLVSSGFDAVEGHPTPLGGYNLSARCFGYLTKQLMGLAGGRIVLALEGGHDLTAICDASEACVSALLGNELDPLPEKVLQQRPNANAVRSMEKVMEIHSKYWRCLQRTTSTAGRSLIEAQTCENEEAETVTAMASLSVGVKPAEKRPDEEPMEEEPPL
Description: as §6

HDAC6 = target: T2, HDAC6 (Homo sapiens, UniProt Q9UBN7); experiment: in vitro HDAC assay, release of 3H-acetate from labeled histones by immunoprecipitated FLAG-tagged HDAC6; type: biochemical; conditions: 300 nM TSA, 10 minutes prior to addition of labeled histones
T2 construct: made in house; host or cells: Sf9 insect cells (baculovirus, pVL1392, Baculogold)
T2 sequence (Q9UBN7 1-1215 T994I): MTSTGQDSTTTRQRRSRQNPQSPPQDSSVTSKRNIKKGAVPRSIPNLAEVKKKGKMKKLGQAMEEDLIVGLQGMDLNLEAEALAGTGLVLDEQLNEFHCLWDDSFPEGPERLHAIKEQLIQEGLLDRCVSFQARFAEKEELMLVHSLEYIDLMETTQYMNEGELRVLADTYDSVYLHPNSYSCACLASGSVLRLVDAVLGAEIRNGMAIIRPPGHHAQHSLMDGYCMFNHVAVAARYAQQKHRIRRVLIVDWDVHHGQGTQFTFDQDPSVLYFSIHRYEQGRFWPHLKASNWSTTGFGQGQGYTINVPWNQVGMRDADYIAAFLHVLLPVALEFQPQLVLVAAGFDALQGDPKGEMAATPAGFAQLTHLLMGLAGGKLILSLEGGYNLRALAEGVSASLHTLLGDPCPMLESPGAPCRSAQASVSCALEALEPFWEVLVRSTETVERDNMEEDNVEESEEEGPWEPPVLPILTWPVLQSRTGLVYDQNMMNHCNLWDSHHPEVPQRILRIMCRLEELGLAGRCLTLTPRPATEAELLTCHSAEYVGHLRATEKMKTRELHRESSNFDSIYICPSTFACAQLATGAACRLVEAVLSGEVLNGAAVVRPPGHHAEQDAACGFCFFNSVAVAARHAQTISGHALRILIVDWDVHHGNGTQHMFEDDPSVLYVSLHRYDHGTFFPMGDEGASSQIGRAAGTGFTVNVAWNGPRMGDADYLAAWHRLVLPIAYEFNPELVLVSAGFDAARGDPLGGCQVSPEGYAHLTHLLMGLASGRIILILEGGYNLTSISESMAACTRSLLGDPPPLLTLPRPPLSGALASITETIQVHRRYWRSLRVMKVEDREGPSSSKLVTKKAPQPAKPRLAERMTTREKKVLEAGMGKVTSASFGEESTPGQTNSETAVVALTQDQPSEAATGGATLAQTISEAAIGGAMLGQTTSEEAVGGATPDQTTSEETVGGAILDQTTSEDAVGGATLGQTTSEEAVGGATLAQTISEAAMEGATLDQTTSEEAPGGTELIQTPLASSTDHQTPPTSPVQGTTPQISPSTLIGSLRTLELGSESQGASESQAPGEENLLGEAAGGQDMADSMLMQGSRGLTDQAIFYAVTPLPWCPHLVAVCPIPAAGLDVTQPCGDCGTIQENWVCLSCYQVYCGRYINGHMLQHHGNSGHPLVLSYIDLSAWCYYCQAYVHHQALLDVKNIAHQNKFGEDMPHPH
Experimental: as §3, §4, §5

Row | Structure (SMILES) | HDAC4 association with HDAC3 (HDAC4 [1]; Western blot) | HDAC4 association with importin α (HDAC4 [1]; Western blot) | binding of HDAC4 to either 14-3-3 isoform (HDAC4 [1]; Western blot) | HDAC activity of the purified HDAC4 complex (HDAC4 [1]) | HDAC5 association with HDAC3 (HDAC5 [2]) | binding of HDAC5 to either 14-3-3 isoform (HDAC5 [2]) | HDAC activity of the purified HDAC5 complex (HDAC5 [2]) | HDAC1 deacetylation activity in the presence of TSA (HDAC1) | HDAC5 deacetylation activity in the presence of TSA (HDAC5 [3]) | HDAC4 deacetylation activity in the presence of TSA (HDAC4 [4]) | HDAC6 deacetylation activity in the presence of TSA (HDAC6)
1 | COC[C@@H]([C@H](O)[C@H](O)C(=O)NCC[C@H](C)c1nc(/C=C/C[C@@H]2O[C@]3(C[C@@H](O)[C@@H]2C)O[C@H]([C@H](C[C@H](O)[C@H](C)[C@H](O)[C@H](C)/C=C(C)/C(C)=C/C=C/C(C)=C\C#N)OC)[C@H](OP(=O)(O)O)C3(C)C)co1)N(C)C [calyculin A] | loss of interaction | fails to associate | increase | dramatic reduction | loss of interaction | increase | dramatic reduction |  |  |  | 
2 | CN[C@@H]1C[C@H]2O[C@@](C)([C@@H]1OC)n1c3ccccc3c3c4c(c5c6ccccc6n2c5c31)C(=O)NC4 [staurosporine] | increase |  | decrease | increase | increase | decrease | increase |  |  |  | 
3 | CC(/C=C/C(=O)NO)=C\[C@@H](C)C(=O)c1ccc(N(C)C)cc1 [TSA, trichostatin A] |  |  |  |  |  |  |  | greatly reduced | greatly reduced | greatly reduced | greatly reduced
